Measured values reported in US20060029743A1, “Wood preservatives and methods of wood preservation” (priority 2004, published 2006).
Values after ≈ are worked out from the molar mass of the structure shown.

Columns and labels:
Irpex lacteus [1] = test: Soil block test (AWPA E10-01, modified), birch blocks; conditions: for Average weight loss: 3 months
Protocol: (§1) For the soil block tests, the protocol listed as AWPA (American Wood Preservers' Association) standard E10-01 was used, with some modifications that are noted.
(§2) For pressure treatment, wood blocks (¾ inch cubes) were made from Southern yellow pine (SYP) or birch dried at about 40° C. to constant weight, and weighed before pressure treatment. In a typical experiment, blocks were submerged in an appropriate treatment solution in an autoclave. A vacuum of 10 to 15 inch Hg (380 to 510 torr) was applied for 30 min, followed by a pressure of 150 psi (1.034 MPa) for 1 hr. The treatment solution was then removed and a vacuum of 10 to 15 inch Hg (380 to 510 torr) was applied again to the blocks for 15 min. Excess treatment solution on the surface was allowed to evaporate (30 min in a laboratory fume hood) before the blocks were either weighed or stored in a sealed plastic bag and weighed at a later time.
(§3) For the soil block test, wood blocks were conditioned in a vented incubator at 40° C. until they reached a constant weight (16 to 18 hrs). Blocks were then autoclaved at 100° C. for 30 min under dry cycle. Soil samples with a water holding capacity of 40% were used for these tests. 60 mL of water and 92-100 g of soil were added into a 228 mL French square bottle, and autoclaved at 121° C. for 30 min. A feeder strip, ⅛″×1⅛″×1⅜″ (˜0.31 cm×2.86 cm×3.49 cm), birch for birch blocks and SYP for SYP blocks, was placed on the top of the soil. A testing block was placed on top of the feeder strip and the bottle contents inoculated with an agar strip (˜3 mm×30 mm) containing freshly grown fungus (listed in the results). For brown rot fungi (Postia placenta), SYP blocks and feeder strips were used. For white rot (Irpex lacteus), birch blocks and feeder strips were used. The bottles were loosely capped and allowed to incubate at ˜75% humidity and 25° C. for 3 months. Then the blocks were removed from the bottles and dried at 40° C. to constant weight in a vented incubator (16-18 hr). The weight of each block was determined and the percent weight loss was calculated.
(§4) Blocks were allowed to age for a week in the fume hood after treatment. Half of the blocks were subjected to leaching with water for an additional week before undergoing the soil block test. For leaching, blocks were placed in a beaker and 30 mL of water per block were added. Blocks were allowed to incubate at room temperature under constant stirring, with daily change of water for one week.

Irpex lacteus [2] = test: 6-well plate assay, minimal inhibitory concentration; type: cell-based; conditions: Irpex lacteus, 168 h; 6-well agar plate; lowest concentration with no growth after seven days; read-out: Effectiveness at Inhibiting Wood-Rotting Fungi, WR2 (minimal inhibitory concentration)
Protocol: (§5) The minimal inhibitory concentration of fungicides against eight fungi was determined in 6-well microtiter plates. Minimal inhibitory concentration is defined as the lowest concentration at which no fungus growth is evident after seven days. A group of eight fungi were used in a screen to identify potential active ingredients to preserve wood. The eight fungi, their classification, and the growth media used to culture them are listed below:
(§6) Growth media were purchased from Difco (from Beckton Dickinson and Co., Sparks, Md.). The growth media were added to water to 2% w/v and autoclaved at 121° C. for 30 min. Autoclaved media were allowed to cool down to ˜50° C. Test chemicals were dissolved in DMSO (dimethyl sulfoxide) individually at 10 mg/mL to generate stock solutions. An appropriate amount of a stock solution was then added to the appropriate growth medium at 50° C. to make up the test media containing various concentrations of individual test chemicals. 10 mL of the medium was added to each well of a 6-well plate and allowed to solidify at room temperature. For each plate, the first well had no chemical, and the remaining five wells contained a particular test chemical at five different concentrations. Eight such plates were prepared for each chemical, using the eight media listed above for the eight test organisms.
(§7) After the media solidified and cooled, a plug (˜2 mm×2 mm) of agar growth medium with fresh grown mycelium from the appropriate fungal culture was used to inoculate each well. The plate was placed in an incubator, and the growth of the fungus monitored. After 4 to 7 days, the growth was scored manually.

[3] = system: Phanerochaete chrysosporium; test: as above; type: cell-based; conditions: Phanerodontia chrysosporium, 168 h; 6-well agar plate; lowest concentration with no growth after seven days; read-out: Effectiveness at Inhibiting Wood-Rotting Fungi, WR3 (minimal inhibitory concentration)
Protocol: as §5, §6, §7

Chaetomium globosum = test: as above; type: cell-based; conditions: Chaetomium globosum, 168 h; 6-well agar plate; lowest concentration with no growth after seven days; read-out: Effectiveness at Inhibiting Wood-Rotting Fungi, SR1 (minimal inhibitory concentration)
Protocol: as §5, §6, §7

Antrodia vaillantii = test: as above; type: cell-based; conditions: Fibroporia vaillantii, 168 h; 6-well agar plate; lowest concentration with no growth after seven days; read-out: Effectiveness at Inhibiting Wood-Rotting Fungi, BR3 (minimal inhibitory concentration)
Protocol: as §5, §6, §7

Gloeophyllum trabeum = test: as above; type: cell-based; conditions: Gloeophyllum trabeum, 168 h; 6-well agar plate; lowest concentration with no growth after seven days; read-out: Effectiveness at Inhibiting Wood-Rotting Fungi, BR2 (minimal inhibitory concentration)
Protocol: as §5, §6, §7

Trametes versicolor = test: as above; type: cell-based; conditions: Trametes versicolor, 168 h; 6-well agar plate; lowest concentration with no growth after seven days; read-out: Effectiveness at Inhibiting Wood-Rotting Fungi, WR1 (minimal inhibitory concentration)
Protocol: as §5, §6, §7

Postia placenta [4] = test: as above; type: cell-based; conditions: Rhodonia placenta, 168 h; 6-well agar plate; lowest concentration with no growth after seven days; read-out: Effectiveness at Inhibiting Wood-Rotting Fungi, BR1 (minimal inhibitory concentration)
Protocol: as §5, §6, §7

Postia placenta [5] = test: Soil block test (AWPA E10-01, modified), SYP blocks; conditions: for Average weight loss: 3 months
Protocol: as §1, §2, §3, §4
SYP blocks were pressure-treated with this solution as above (Example 2). After treatment, the blocks were divided into groups and allowed to age in the hood for either two days or 14 days. The blocks were then placed in a beaker and submerged under water (50 mL water per block), under constant stirring for two weeks. […]

## C[Si](Cn1cncn1)(c1ccc(F)cc1)c1ccc(F)cc1 [Flusilazole]
Irpex lacteus [1]; birch blocks pressure-treated with 50 ppm solution in 5% acetic acid
  Average weight loss: 19.5%
Irpex lacteus [1]; birch blocks pressure-treated with 100 ppm solution in 5% acetic acid
  Average weight loss: 21.7%
Irpex lacteus [1]; birch blocks pressure-treated with 200 ppm solution in 5% acetic acid
  Average weight loss: 11%
Irpex lacteus [1]; birch blocks, 200 ppm flusilazole solution
  Protection against decay (in words): significantly protected from decay
Irpex lacteus [2]
  MIC: 1 to 100 µg/mL (≈ 3.17 to 317 µM)
[3]
  MIC: 1 to 100 µg/mL (≈ 3.17 to 317 µM)
Chaetomium globosum
  MIC: < 1 µg/mL
Antrodia vaillantii
  MIC: < 1 µg/mL
Gloeophyllum trabeum
  MIC: 1 to 100 µg/mL (≈ 3.17 to 317 µM)
Trametes versicolor
  MIC: < 1 µg/mL
Postia placenta [4]
  MIC: < 1 µg/mL
Postia placenta [5]; SYP blocks pressure-treated with 50 ppm solution in 5% acetic acid
  Average weight loss: 29%
Postia placenta [5]; SYP blocks pressure-treated with 100 ppm solution in 5% acetic acid
  Average weight loss: 19%
Postia placenta [5]; SYP blocks pressure-treated with 200 ppm solution in 5% acetic acid
  Average weight loss: 3.3%
Postia placenta [5]; SYP blocks, 200 ppm flusilazole solution
  Protection against decay (in words): protected against decay
